Results reported in patent publication US20220289685A1, “ANTIMALARIAL HEXAHYDROPYRIMIDINE ANALOGUES” (UCB BIOPHARMA SRL, priority 2019, published 2022).
Where a name gives a salt, the structure may show the parent alone.

tested on: Plasmodium falciparum 3D7 strain; test: P. falciparum 3D7 asexual blood stage assay (SYBR green readout); assay type: cell-based; conditions: Plasmodium falciparum, 3D7, Erythrocyte, 72 h
Procedure: Asexual Blood Stage Assay
The assay used to measure the effect of test compounds on a bloodstream stage of Plasmodium falciparum: 3D7 strain employs SYBR green as the readout. This is a dye that binds to double stranded deoxyribonucleic acid (DNA) with a resulting increase in fluorescence, allowing detection of P. falciparum DNA in infected erythrocytes, and thereby providing a measure of parasite growth and propagation.
P. falciparum Culture Maintenance
Erythrocytes (A+ blood) were prepared for both parasite culture and assay by washing 4 times with incomplete media (15.9 g RPMI 1640 (25 mM HEPES, L-glutamine), 1 g NaHCO3, 2 g glucose, 400 μL gentacin (500 mg/mL), 2 mL hypoxanthine solution (13.6 g/L in 0.1M NaOH pH 7.3) in 1 litre of media). The cells were centrifuged at 1800 g for 5 minutes, before decanting the supernatant and re-suspending in fresh incomplete media. On the final wash, the cells were re-suspended in complete media (incomplete media with 5 g/L AlbumaxII), and centrifuged at 1800 g for 3 minutes. This cell sediment was treated as 100% haematocrit.
P. falciparum 3D7 was cultured in erythrocytes at 5% haematocrit in complete media at 37° C. (1% O2, 3% CO2, balance N2). Cultures were split on a weekly basis to achieve a 1% parasitaemia in erythrocites at 5% haematocrit in fresh media. Culture media is replaced by fresh media every other day (2 times during the week).
On day 1, test compounds were added to assay plates using Echo dispensing technology ([…] and 20 points titration). 50 nL of each compound dilution was added to 50 μL of culture (5% haematocrit, 0.5% parasitaemia) and incubated for 72 h at 37° C. (1% O2, 3% CO2, balance N2). Final concentrations of test compounds ranged from 50,000 nM to 15 nM, in […].
On day 4, 10 μL SYBR green (Invitrogen S7563 supplied as 10,000× concentrate in DMSO) pre-diluted to 3× concentrate with Lysis buffer (20 mM Tris pH 7.9, 5% EDTA, 0.16% w/v, 1.6% TX100 v/v) was added to the cultures and incubated in the dark, overnight, at room temperature.
On day 5, fluorescent signal was measured using a BioTek plate reader (excitation 485 nm, emission 528 nm). All data were processed using IDBS ActivityBase. Raw data were converted into percent inhibition through linear regression by setting the high inhibition control (mefloquine) as 100% and the no inhibition control (DMSO) as 0%. Quality control criteria for passing plates were as follows: Z′>0.5, S:B>3, 30% CV(no inhibition control)<15. The formula used to calculate Z′ is: […]
All EC50 curve fitting was undertaken using the following bi-phasic two site dose response using XLfit model 300 (IDBS):
where A=100 minus the top of the upper curve 1 and the bottom of lower curve; B=Hill slope; log(C)=IC50 concentration at lower site; log(D)=IC50 concentration at upper site; x=inhibitor concentration; and y=% inhibition.

SMILES	IC50
C[C@@H]1C[C@H](N2C(=N)N[C@](C)(c3cccc(NC(=O)c4cccnc4C(F)(F)F)c3Cl)CC2=O)CCO1 (relative stereo) [Example 61, N-(2-Chloro-3-{(4S)-2-imino-4-methyl-1-[(2R*,4R*)-2-methyl-tetrahydropyran-4-yl]-6-oxo-hexahydropyrimidin-4-yl}phenyl)-2-(trifluoromethyl)pyridine-3-carboxamide hydrochloride]	442 nM
C[C@@H]1C[C@H](N2C(=N)N[C@](C)(c3cccc(NC(=O)c4ccc(OCC(F)(F)F)nc4)c3Cl)CC2=O)CCO1 (relative stereo) [Example 58, N-(2-Chloro-3-{(4S)-2-imino-4-methyl-1-[(2R*,4R*)-2-methyl-tetrahydropyran-4-yl]-6-oxo-hexahydropyrimidin-4-yl]phenyl)-6-(2,2,2-trifluoroethoxy)pyridine-3-carboxamide hydrochloride]	438 nM
C[C@@H]1C[C@H](N2C(=N)N[C@](C)(c3cccc(NC(=O)c4ccc(F)c(C#N)c4)c3Cl)CC2=O)CCO1 (relative stereo) [Example 116, N-(2-Chloro-3-{(4S)-2-imino-4-methyl-1-[(2R* ,4R* )-2-methyl-tetrahydropyran-4-yl]-6-oxo-hexahydropyrimidin-4-yl]phenyl)-3-cyano-4-fluorobenzamide trifluoroacetic acid salt]	89 nM
COc1nccc(C(F)(F)F)c1C(=O)Nc1cccc([C@]2(C)CC(=O)N([C@@H]3CCO[C@H](C)C3)C(=N)N2)c1Cl (relative stereo) [Example 114, N-(2-Chloro-3-{(4S)-2-imino-4-methyl-1-[(2R*,4R*)-2-methyl-tetrahydropyran-4-yl]-6-oxo-hexahydropyrimidin-4-yl]phenyl)-2-methoxy-4-(trifluoromethyl)-pyridine-3-carboxamide hydrochloride]	53 nM
C[C@@H]1C[C@H](N2C(=N)NC(C)(c3cccc(NC(=O)c4ccc(Cl)cc4F)c3Cl)CC2=O)CCO1 (relative stereo) [Example 67, 4-Chloro-N-(2-chloro-3-{(4S)-2-imino-4-methyl-1-[(2R*,4R*)-2-methyltetrahydropyran-4-yl]-6-oxo-hexahydropyrimidin-4-yl}phenyl)-2-fluorobenzamide hydrochloride]	26 nM
C[C@@H]1C[C@H](N2C(=N)N[C@](C)(c3cccc(NC(=O)c4ncc5ccccn45)c3Cl)CC2=O)CCO1 (relative stereo) [Example 65, N-(2-Chloro-3-{(4S)-2-imino-4-methyl-1-[(2R*,4R*)-2-methyl-tetrahydropyran-4-yl]-6-oxo-hexahydropyrimidin-4-yl]phenyl)-imidazo[1,5-a]pyridine-3-carboxamide hydrochloride]	51 nM
C[C@@H]1C[C@H](N2C(=N)N[C@](C)(c3cccc(NC(=O)c4ccc(OC(F)(F)F)cn4)c3Cl)CC2=O)CCO1 (relative stereo) [Example 47, N-(2-Chloro-3-{(4S)-2-imino-4-methyl-1-[(2R*,4R*)-2-methyl-tetrahydropyran-4-yl]-6-oxo-hexahydropyrimidin-4-yl]phenyl)-5-(trifluoromethoxy)pyridine-2-carboxamide trifluoroacetic acid salt]	242 nM
C[C@@H]1C[C@H](N2C(=N)N[C@](C)(c3cccc(NC(=O)c4cccc(-n5cccn5)c4)c3Cl)CC2=O)CCO1 (relative stereo) [Example 90, N-(2-Chloro-3-{(4S)-2-imino-4-methyl-1-[(2R*,4R*)-2-methyl-tetrahydropyran-4-yl]-6-oxo-hexahydropyrimidin-4-yl}phenyl)-3-(pyrazol-1-yl)benzamide trifluoroacetic acid salt]	23 nM
C[C@@H]1C[C@H](N2C(=N)N[C@](C)(c3cccc(NC(=O)c4cc(Cl)cc(C#N)c4)c3Cl)CC2=O)CCO1 (relative stereo) [Example 77, 3-Chloro-N-(2-chloro-3-{(4S)-2-imino-4-methyl-1-[(2R*,4R*)-2-methyltetrahydropyran-4-yl]-6-oxo-hexahydropyrimidin-4-yl}phenyl)-5-cyanobenzamide hydrochloride]	7 nM
C[C@@H]1C[C@H](N2C(=N)N[C@](C)(c3cccc(NC(=O)c4cc(N5CCOCC5)ccn4)c3Cl)CC2=O)CCO1 (relative stereo) [Example 93, N-(2-Chloro-3-{(4S)-2-imino-4-methyl-1-[(2R*,4R*)-2-methyl-tetrahydropyran-4-yl]-6-oxo-hexahydropyrimidin-4-yl]phenyl)-4-(morpholin-4-yl)pyridine-2-carboxamide hydrochloride]	47 nM
C[C@@H]1C[C@H](N2C(=N)N[C@](C)(c3cccc(NC(=O)c4ccc(F)c(Cl)c4F)c3Cl)CC2=O)CCO1 (relative stereo) [Example 71, 3-Chloro-N-(2-chloro-3-{(4S)-2-imino-4-methyl-1-[(2R*,4R*)-2-methyltetrahydropyran-4-yl]-6-oxo-hexahydropyrimidin-4-yl}phenyl)-2,4-difluorobenzamide hydrochloride]	26 nM
C[C@@H]1C[C@H](N2C(=N)N[C@](C)(c3cccc(NC(=O)c4ccc(Cl)c(C#N)c4)c3Cl)CC2=O)CCO1 (relative stereo) [Example 117, 4-Chloro-N-(2-chloro-3-{(4S)-2-imino-4-methyl-1-[(2R*,4R*)-2-methyltetrahydropyran-4-yl]-6-oxo-hexahydropyrimidin-4-yl}phenyl)-3-cyanobenzamide trifluoroacetic acid salt]	17 nM
C[C@@H]1C[C@H](N2C(=N)N[C@](C)(c3cccc(NC(=O)c4cncn4C)c3Cl)CC2=O)CCO1 (relative stereo) [Example 103, N-(2-Chloro-3-{(4S)-2-imino-4-methyl-1-[(2R*,4R*)-2-methyl-tetrahydropyran-4-yl]-6-oxo-hexahydropyrimidin-4-yl}phenyl)-3-methylimidazole-4-carboxamide hydrochloride]	17 nM
C[C@@H]1C[C@H](N2C(=N)N[C@](C)(c3cccc(NC(=O)c4cnc5cccnc5c4)c3Cl)CC2=O)CCO1 (relative stereo) [Example 52, N-(2-Chloro-3-{(4S)-2-imino-4-methyl-1-[(2R*,4R*)-2-methyl-tetrahydropyran-4-yl]-6-oxo-hexahydropyrimidin-4-yl}phenyl)-1,5-naphthyridine-3-carboxamide trifluoroacetic acid salt]	115 nM
C[C@@H]1C[C@H](N2C(=N)N[C@](C)(c3cccc(NC(=O)c4ncc(Cl)cn4)c3Cl)CC2=O)CCO1 (relative stereo) [Example 92, 5-Chloro-N-(2-chloro-3-{(4S)-2-imino-4-methyl-1-[(2R*,4R*)-2-methyltetrahydropyran-4-yl]-6-oxo-hexahydropyrimidin-4-yl]phenyl)-pyrimidine-2-carboxamide hydrochloride]	28 nM
C[C@@]1(c2cccc(NC(=O)c3ccc(Cl)cn3)c2Cl)CC(=O)N(C2CCOCC2)C(=N)N1 [Example 2, 5-Chloro-N-{2-chloro-3-[(4S)-2-imino-4-methyl-6-oxo-1-(tetrahydropyran-4-yl)hexahydro-pyrimidin-4-yl]phenyl}pyridine-2-carboxamide trifluoroacetic acid salt]	1120 nM
C[C@@H]1C[C@H](N2C(=N)N[C@](C)(c3cccc(NC(=O)c4cc5cccc(F)c5o4)c3Cl)CC2=O)CCO1 (relative stereo) [Example 44, N-(2-Chloro-3-{(4S)-2-imino-4-methyl-1-[(2R*,4R*)-2-methyl-tetrahydropyran-4-yl]-6-oxo-hexahydropyrimidin-4-yl]phenyl)-7-fluorobenzofuran-2-carboxamide trifluoroacetic acid salt]	20 nM

same assay, conditions: Plasmodium falciparum, Erythrocyte; P. falciparum 3D7 in human erythrocytes, 72 h incubation, SYBR green fluorescence; read-out: IC50

IC50	SMILES
13 nM	C[C@@H]1C[C@H](N2C(=N)N[C@](C)(c3cccc(NC(=O)c4cc(F)c(F)cc4F)c3Cl)CC2=O)CCO1 (relative stereo) [Example 64, N-(2-Chloro-3-{(4S)-2-imino-4-methyl-1-[(2,R*,4R*)-2-methyl-tetrahydropyran-4-yl]-6-oxo-hexahydropyrimidin-4-yl}phenyl)-2,4,5-trifluorobenzamide hydrochloride]
